Activity calls are given as the source filed them. No cut-off for these calls is given here.
How the values were obtained:
LX-2 [1] = test: Antifibrotic activity against TGFbeta-1 induced human LX-2 cells assessed as inhibition of COL1A1 mRNA expression at 20 uM incubated for 24 hrs by qRT-PCR analysis relative to control; format: functional; parameters: scale not given: the % may be the effect or the level left
LX-2 [2] = test: Antifibrotic activity against TGFbeta-1 induced human LX-2 cells assessed as inhibition of TGFB1 mRNA expression at 20 uM incubated for 24 hrs by qRT-PCR analysis relative to control; format: functional; parameters: scale not given: the % may be the effect or the level left
LX-2 [3] = test: Antifibrotic activity against TGFbeta-1 induced human LX-2 cells assessed as inhibition of ACTA2 mRNA expression at 20 uM incubated for 24 hrs by qRT-PCR analysis relative to control; format: functional; parameters: scale not given: the % may be the effect or the level left
LX-2 [4] = test: Antifibrotic activity against TGFbeta-1 induced human LX-2 cells assessed as inhibition of COL1A1 mRNA expression at 1 uM incubated for 24 hrs by qRT-PCR analysis relative to control; format: functional; parameters: scale not given: the % may be the effect or the level left
LX-2 [5] = test: Antifibrotic activity against TGFbeta-1 induced human LX-2 cells assessed as inhibition of COL1A1 mRNA expression at 5 uM incubated for 24 hrs by qRT-PCR analysis relative to control; format: functional; parameters: scale not given: the % may be the effect or the level left
LX-2 [6] = test: Antifibrotic activity against TGFbeta-1 induced human LX-2 cells assessed as inhibition of TGFB1 mRNA expression at 1 uM incubated for 24 hrs by qRT-PCR analysis relative to control; format: functional; parameters: scale not given: the % may be the effect or the level left
LX-2 [7] = test: Antifibrotic activity against TGFbeta-1 induced human LX-2 cells assessed as inhibition of TGFB1 mRNA expression at 5 uM incubated for 24 hrs by qRT-PCR analysis relative to control; format: functional; parameters: scale not given: the % may be the effect or the level left
LX-2 [8] = test: Antifibrotic activity against TGFbeta-1 induced human LX-2 cells assessed as inhibition of ACTA2 mRNA expression at 1 uM incubated for 24 hrs by qRT-PCR analysis relative to control; format: functional; parameters: scale not given: the % may be the effect or the level left
LX-2 [9] = test: Antifibrotic activity against TGFbeta-1 induced human LX-2 cells assessed as inhibition of ACTA2 mRNA expression at 5 uM incubated for 24 hrs by qRT-PCR analysis relative to control; format: functional; parameters: scale not given: the % may be the effect or the level left
LX-2 [10] = test: Cytotoxicity against human LX-2 cells assessed as reduction in cell viability at 200 uM incubated for 24 hrs by CCK-8 assay; format: toxicity, cell-based; conditions: lx-2, 24 h
NIH3T3 [11] = test: Antifibrotic activity against TGFbeta-1 induced mouse NIH3T3 cells assessed as decrease in COL1A1 mRNA expression at 1 uM incubated for 24 hrs by qRT-PCR analysis relative to control; format: functional; parameters: scale not given: the % may be the effect or the level left
NIH3T3 [12] = test: Antifibrotic activity against TGFbeta-1 induced mouse NIH3T3 cells assessed as decrease in COL1A1 mRNA expression at 5 uM incubated for 24 hrs by qRT-PCR analysis relative to control; format: functional; parameters: scale not given: the % may be the effect or the level left
NIH3T3 [13] = test: Antifibrotic activity against TGFbeta-1 induced mouse NIH3T3 cells assessed as decrease in Acta2 mRNA expression at 1 uM incubated for 24 hrs by qRT-PCR analysis relative to control; format: functional; parameters: scale not given: the % may be the effect or the level left
NIH3T3 [14] = test: Antifibrotic activity against TGFbeta-1 induced mouse NIH3T3 cells assessed as decrease in Acta2 mRNA expression at 5 uM incubated for 24 hrs by qRT-PCR analysis relative to control; format: functional; parameters: scale not given: the % may be the effect or the level left
[15] = molecular target: T1, Polyunsaturated fatty acid 5-lipoxygenase (Homo sapiens) (UniProt P09917); test: Inhibition of human 5-LO at 2 uM incubated for 15 mins in presence of ATP by measuring fluorescence intensity relative to control
T1 sequence (whole entry): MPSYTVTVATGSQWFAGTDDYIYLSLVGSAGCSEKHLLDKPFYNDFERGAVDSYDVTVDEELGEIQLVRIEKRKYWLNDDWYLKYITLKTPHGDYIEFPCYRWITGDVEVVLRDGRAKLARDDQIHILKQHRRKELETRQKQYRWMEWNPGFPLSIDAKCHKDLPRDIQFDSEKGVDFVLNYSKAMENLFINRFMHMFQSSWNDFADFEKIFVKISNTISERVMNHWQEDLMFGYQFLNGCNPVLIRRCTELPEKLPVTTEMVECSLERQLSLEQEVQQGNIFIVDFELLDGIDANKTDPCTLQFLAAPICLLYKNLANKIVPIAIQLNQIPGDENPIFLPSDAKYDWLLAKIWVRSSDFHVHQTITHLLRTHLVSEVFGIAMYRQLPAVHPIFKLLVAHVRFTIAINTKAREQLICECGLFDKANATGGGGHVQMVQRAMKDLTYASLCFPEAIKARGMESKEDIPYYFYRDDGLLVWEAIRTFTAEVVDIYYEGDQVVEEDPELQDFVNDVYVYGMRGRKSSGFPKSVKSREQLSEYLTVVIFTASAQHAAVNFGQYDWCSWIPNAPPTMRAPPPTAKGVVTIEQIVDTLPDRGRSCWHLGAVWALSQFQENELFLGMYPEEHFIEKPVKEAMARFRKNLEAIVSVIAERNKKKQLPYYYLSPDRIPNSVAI

LX-2 [16] = test: Antifibrotic activity against TGFbeta-1 induced human LX-2 cells assessed as inhibition of COL1A1 mRNA expression incubated for 24 hrs by qRT-PCR analysis; format: functional, cell-based; conditions: dose 1-5 µM
LX-2 [17] = test: Antifibrotic activity against TGFbeta-1 induced human LX-2 cells assessed as inhibition of TGFB1 mRNA expression incubated for 24 hrs by qRT-PCR analysis; format: functional, cell-based; conditions: dose 1-5 µM
LX-2 [18] = test: Antifibrotic activity against TGFbeta-1 induced human LX-2 cells assessed as inhibition of ACTA2 mRNA expression incubated for 24 hrs by qRT-PCR analysis; format: functional, cell-based; conditions: dose 1-5 µM
Escherichia coli [19] = test: Antibacterial activity against Escherichia coli ATCC 25922 assessed as bacterial growth inhibition incubated for 16 hrs in presence of Muller-Hinton medium by broth microdilution method; format: functional, organism-based
Escherichia coli [20] = test: Antibacterial activity against Escherichia coli ATCC 35218 assessed as bacterial growth inhibition incubated for 16 hrs in presence of Muller-Hinton medium by broth microdilution method; format: functional, organism-based
Pseudomonas aeruginosa [21] = test: Antibacterial activity against Pseudomonas aeruginosa ATCC 27853 assessed as bacterial growth inhibition incubated for 16 hrs in presence of Muller-Hinton medium by broth microdilution method; format: functional, organism-based
Pseudomonas aeruginosa [22] = test: Antibacterial activity against Pseudomonas aeruginosa 2774 assessed as bacterial growth inhibition incubated for 16 hrs in presence of Muller-Hinton medium by broth microdilution method; format: functional, organism-based
Klebsiella pneumoniae [23] = test: Antibacterial activity against Klebsiella pneumoniae ATCC 10031 assessed as bacterial growth inhibition incubated for 16 hrs in presence of Muller-Hinton medium by broth microdilution method; format: functional, organism-based
Klebsiella pneumoniae [24] = test: Antibacterial activity against Klebsiella pneumoniae ATCC 700603 assessed as bacterial growth inhibition incubated for 16 hrs in presence of Muller-Hinton medium by broth microdilution method; format: functional, organism-based
Acinetobacter baumannii [25] = test: Antibacterial activity against Acinetobacter baumannii ATCC 19606 assessed as bacterial growth inhibition incubated for 16 hrs in presence of Muller-Hinton medium by broth microdilution method; format: functional, organism-based
Acinetobacter baumannii [26] = test: Antibacterial activity against Acinetobacter baumannii 2799 assessed as bacterial growth inhibition incubated for 16 hrs in presence of Muller-Hinton medium by broth microdilution method; format: functional, organism-based
Enterococcus faecium = test: Antibacterial activity against Enterococcus faecium 310682 (VRE) assessed as bacterial growth inhibition incubated for 16 hrs in presence of brain heart infusion medium by broth microdilution method; format: functional, organism-based
Enterococcus faecalis = test: Antibacterial activity against Enterococcus faecalis ATCC 33186 assessed as bacterial growth inhibition incubated for 16 hrs in presence of brain heart infusion medium by broth microdilution method; format: functional, organism-based
Staphylococcus aureus [27] = test: Antibacterial activity against Staphylococcus aureus ATCC 33591 assessed as bacterial growth inhibition incubated for 16 hrs in presence of Muller-Hinton medium by broth microdilution method; format: functional, organism-based
Staphylococcus aureus [28] = test: Antibacterial activity against Staphylococcus aureus ATCC 29213 assessed as bacterial growth inhibition incubated for 16 hrs in presence of Muller-Hinton medium by broth microdilution method; format: functional, organism-based
Bacillus subtilis = test: Antibacterial activity against Bacillus subtilis CPCC 100029 assessed as bacterial growth inhibition incubated for 16 hrs in presence of Muller-Hinton medium by broth microdilution method; format: functional, organism-based

Molecule O=C(O[C@@H]1Cc2c(O)cc(O)cc2O[C@@H]1c1cc(O)c(O)c(O)c1)c1cc(O)c(O)c(O)c1 [EPIGALOCATECHIN GALLATE] has an Activity (LX-2 [1]) of 89%, an Activity (LX-2 [2]) of 88% and an Activity (LX-2 [3]) of 62%.
Work on CC(C)C(=O)OC[C@H](CCCCNC(=O)c1cccc(O)c1O)NC(=O)c1cccc(O)c1O yielded an Activity (LX-2 [4]) of 49%, an Activity (LX-2 [5]) of 93% and an Activity (LX-2 [6]) of 65%. For the same molecule, the Activity (LX-2 [7]) was 72%, the Activity (LX-2 [8]) was 92% and the Activity (LX-2 [9]) was 138%. The Activity (LX-2 [10]) was “Non-toxic”, the Activity (NIH3T3 [11]) was 44% and the Activity (NIH3T3 [12]) was 79%. For the same molecule, the Activity (NIH3T3 [13]) was 75%, the Activity (NIH3T3 [14]) was 122% and the inhibition [15] was 80%. The Activity (LX-2 [16]) was “Dose-dependent-effect”, the Activity (LX-2 [17]) was “Dose-dependent-effect” and the Activity (LX-2 [18]) was “Dose-dependent-effect”. For the same molecule, the Activity (Escherichia coli [19]) was “inactive”, the Activity (Escherichia coli [20]) was “inactive” and the Activity (Pseudomonas aeruginosa [21]) was “inactive”. For the same molecule, the Activity (Pseudomonas aeruginosa [22]) was “inactive”, the Activity (Klebsiella pneumoniae [23]) was “inactive” and the Activity (Klebsiella pneumoniae [24]) was “inactive”. The Activity (Acinetobacter baumannii [25]) was “inactive”, the Activity (Acinetobacter baumannii [26]) was “inactive” and the Activity (Enterococcus faecium) was “inactive”. The Activity (Enterococcus faecalis) was “inactive”, the Activity (Staphylococcus aureus [27]) was “inactive” and the Activity (Staphylococcus aureus [28]) was “inactive”. For the same molecule, the Activity (Bacillus subtilis) was “inactive”.

Reference: ChEMBL document CHEMBL6078652, “Discovery of Sporachelins by Genome Mining of a Micromonospora Strain” (J Nat Prod, 2024)
